Values quoted from earlier work as cited in patent US20250289804A1, “SUBSTITUTED INDOLE COMPOUNDS AND METHODS OF USE THEREOF” (NOVARTIS PHARMA AG, priority 2021, published 2025).

System: C3G patients
Details: after 12 weeks of treatment; cited from earlier work

In the case of CCO[C@H]1CCN(Cc2c(OC)cc(C)c3[nH]ccc23)[C@H](c2ccc(C(=O)O)cc2)C1 [iptacopan], the “efficacy (proteinuria)” value is given as “reduced proteinuria”.
